{
  "source": "paper PMC10693631",
  "about": "“A multi-reservoir extruder for time-resolved serial protein crystallography and compound screening at X-ray free-electron lasers” (Nature Communications, 2023)",
  "biological_target": "T1, Krokinobacter eikastus rhodopsin 2 (KR2) (Dokdonia eikasta, UniProt N0DKS8)",
  "T1 construct": "gene NaR; light-driven sodium pump, membrane protein crystallised in monoolein LCP; expression and purification only cited",
  "T1 sequence (N0DKS8 1-280)": "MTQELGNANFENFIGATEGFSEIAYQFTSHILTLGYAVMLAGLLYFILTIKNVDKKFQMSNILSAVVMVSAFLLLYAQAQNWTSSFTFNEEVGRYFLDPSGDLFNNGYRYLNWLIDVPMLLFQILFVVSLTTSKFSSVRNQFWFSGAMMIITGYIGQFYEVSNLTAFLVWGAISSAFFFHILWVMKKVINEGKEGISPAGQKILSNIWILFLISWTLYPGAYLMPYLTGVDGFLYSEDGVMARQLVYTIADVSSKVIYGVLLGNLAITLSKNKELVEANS",
  "assay": "time-resolved serial femtosecond crystallography (XFEL, room temperature), dark state",
  "assay_type": "binding",
  "conditions": "covalent, light state 1 us after 575 nm pulse deposited as 8CL8, crystals shifted to pH 9.0, 150 mM NaCl",
  "data": [
    {"smiles": "CC1=C(/C=C/C(C)=C/C=C/C(C)=C/C=O)C(C)(C)CCC1", "note": "[retinal]", "values": [
      {"measurement": "time-resolved serial femtosecond crystallography (XFEL, room temperature), dark", "value": "examining structural changes after photoactivation of its retinal chromophore"}
    ]}
  ]
}
